These compounds were tested against T1, FAK enzyme (6 His tagged kinase domain, GenBank NP—722560) (Homo sapiens, UniProt Q05397) (assay: In vitro enzyme assay (a): sandwich ELISA of FAK tyrosine kinase activity on polyGAT peptide, TMB colorimetric endpoint). Details: in vitro Enzyme Assay test (a); ATP at Km; geometric mean of n > 1 measurements, values marked * tested once.
T1 construct: 6 His; made in house; host or cells: insect cell culture infected with baculovirus
Type: biochemical
How it was run: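 Recombinant His-tagged FAK kinase domain (baculovirus/insect cells) phosphorylated plate-coated polyGAT with ATP at Km, MgCl2/MnCl2, HEPES pH 7.4, 25 min at room temperature before EDTA stop. Phosphotyrosine detected by HRP-4G10 antibody and TMB absorbance at 450 nm; IC50 from 12-point curve anchored to DMSO and staurosporine controls.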

T1 sequence (Q05397 422-680 limits assumed): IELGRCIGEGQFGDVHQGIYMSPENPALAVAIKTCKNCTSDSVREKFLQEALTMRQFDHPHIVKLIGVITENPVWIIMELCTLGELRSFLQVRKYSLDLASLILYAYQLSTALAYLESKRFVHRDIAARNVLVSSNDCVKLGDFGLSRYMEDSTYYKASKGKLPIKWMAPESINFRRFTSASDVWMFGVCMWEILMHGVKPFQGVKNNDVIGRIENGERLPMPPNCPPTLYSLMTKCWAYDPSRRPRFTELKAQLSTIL

Q: Which IC50 does the source give for `CNC(=O)c1ccccc1Nc1cc(Nc2cn(CCO)nc2C)ncc1C(F)(F)F` [Example 13.06, 2-[[2-[[1-(2-hydroxyethyl)-3-methyl-pyrazol-4-yl]amino]-5-(trifluoromethyl)-4-pyridyl]amino]-N-methyl-benzamide] here?
A: 6 nM

Q: For `CONC(=O)c1c(Nc2cc(Nc3cn(C)nc3C)ncc2C(F)(F)F)cccc1OC` [Example 14.01, 2-[[2-[(1,3-dimethylpyrazol-4-yl)amino]-5-(trifluoromethyl)-4-pyridyl]amino]-N,6-dimethoxy-benzamide], which IC50 is on record?
A: 4 nM

Q: How did the IC50 turn out when `CONC(=O)c1ccccc1Nc1cc(Nc2cc(C)nn2C)ncc1C(F)(F)F` [Example 14.02, 2-[[2-[(2,5-dimethylpyrazol-3-yl)amino]-5-(trifluoromethyl)-4-pyridyl]amino]-N-methoxy-benzamide] was run?
A: 2 nM

Q: `CONC(=O)c1c(Nc2cc(Nc3cc(C)nn3C)ncc2C(F)(F)F)cccc1OC` [Example 14.03, 2-[[2-[(2,5-dimethylpyrazol-3-yl)amino]-5-(trifluoromethyl)-4-pyridyl]amino]-N,6-dimethoxy-benzamide] was tested. Which IC50 did it give?
A: 6 nM

Q: `CONC(=O)c1ccc(F)cc1Nc1cc(Nc2cn(C)nc2C)ncc1C(F)(F)F` [Example 15.01, 2-[[2-[(1,3-dimethylpyrazol-4-yl)amino]-5-(trifluoromethyl)-4-pyridyl]amino]-4-fluoro-N-methoxy-benzamide] was tested. Which IC50 did it give?
A: 4 nM

Q: Which IC50 does the source give for `CONC(=O)c1ccc(F)cc1Nc1cc(Nc2cc(C)nn2C)ncc1C(F)(F)F` [Example 15.02, 2-[[2-[(2,5-dimethylpyrazol-3-yl)amino]-5-(trifluoromethyl)-4-pyridyl]amino]-4-fluoro-N-methoxy-benzamide] here?
A: 3 nM

Q: For `CNC(=O)c1ccc(F)cc1Nc1cc(Nc2cc(C)nn2C)ncc1C(F)(F)F` [Example 15.03, 2-[[2-[(2,5-dimethylpyrazol-3-yl)amino]-5-(trifluoromethyl)-4-pyridyl]amino]-4-fluoro-N-methyl-benzamide], which IC50 is on record?
A: 6 nM

Q: How did the IC50 turn out when `CNC(=O)c1c(Nc2cc(Nc3c(C)nn(C)c3C)ncc2C(F)(F)F)cccc1OC` [Example 15.04, 2-Methoxy-N-methyl-6-[[5-(trifluoromethyl)-2-[(1,3,5-trimethylpyrazol-4-yl)amino]-4-pyridyl]amino]benzamide] was run?
A: 24 nM

Q: With `CONC(=O)c1c(Nc2cc(Nc3c(C)nn(C)c3C)ncc2C(F)(F)F)cccc1OC` [Example 15.05, N,2-dimethoxy-6-[[5-(trifluoromethyl)-2-[(1,3,5-trimethylpyrazol-4-yl)amino]-4-pyridyl]amino]benzamide] as the compound, how does the IC50 read?
A: 10 nM

Q: For `CONC(=O)c1ccccc1Nc1cc(Nc2c(C)nn(C)c2C)ncc1C(F)(F)F` [Example 15.06, N-methoxy-2-[[5-(trifluoromethyl)-2-[(1,3,5-trimethylpyrazol-4-yl)amino]-4-pyridyl]amino]benzamide], which IC50 is on record?
A: 5 nM

Q: For `CCONC(=O)c1ccccc1Nc1cc(Nc2cc(C)nn2C)ncc1C(F)(F)F` [Example 15.07, 2-[[2-[(2,5-dimethylpyrazol-3-yl)amino]-5-(trifluoromethyl)-4-pyridyl]amino]-N-ethoxy-benzamide], which IC50 is on record?
A: 113 nM

Q: How did the IC50 turn out when `Cc1cc(Nc2cc(Nc3ccccc3C(=O)NOCCO)c(C(F)(F)F)cn2)n(C)n1` [Example 15.08, 2-[[2-[(2,5-dimethylpyrazol-3-yl)amino]-5-(trifluoromethyl)-4-pyridyl]amino]-N-(2-hydroxyethoxy)benzamide] was run?
A: 620 nM

Q: For `CONC(=O)c1cc(F)ccc1Nc1cc(Nc2cc(C)nn2C)ncc1C(F)(F)F` [Example 16.01, 2-[[2-[(2,5-dimethylpyrazol-3-yl)amino]-5-(trifluoromethyl)-4-pyridyl]amino]-5-fluoro-N-methoxy-benzamide], which IC50 is on record?
A: 12 nM

Q: Which IC50 does the source give for `CONC(=O)c1cc(F)ccc1Nc1cc(Nc2cn(C)nc2C)ncc1C(F)(F)F` [Example 16.02, 2-[[2-[(1,3-dimethylpyrazol-4-yl)amino]-5-(trifluoromethyl)-4-pyridyl]amino]-5-fluoro-N-methoxy-benzamide] here?
A: 6 nM

From patent US8569298B2, “Pyridine compounds” (Astrazeneca AB, priority 2008, dated 2013)
